Test results as given in patent US9101600B2, “Compounds as RORγt modulators and uses thereof” (New York University, priority 2010, dated 2015).
pIC50: −log10 of the molar value.

Assays:
[1] = tested on: mouse Th17 cell differentiation; test: Cytokine induced mouse Th17 cell differentiation (IL17a production, FACS); assay type: cell-based; details: for effect on mouse Th17 cell differentiation / IL-17a in mouse CD4 T cells (in words): IL-6 and TGF-β
Description: Cytokine induced mouse Th17 cells differentiation. Effects on mouse endogenous RORγt in a relevant physiological setting were determined by testing compounds in the Th17 cell differentiation assay. […] Th1 or regulatory T cell differentiation was used as a counter-screen method to select specific compounds that only affect Th17 cell differentiation without having pleiotrophic effects on general T cell proliferation or cytokine production.
Naive CD4 T cells were cultured with CD3/CD28 stimulatory antibodies in presence of TGFβ and IL6. Compounds were added on Day 1 and cells were analyzed on Day 4. Numbers shown in Table 3 indicate the percentage of mouse Th17 cells.
CD25^−, CD62L^+, and CD44^int-high cells were sorted from B6 mice.

RORγ/γt [2] = molecular target: T1, RORγ/γt (Mus musculus, UniProt P51450, T352K); test: Small-scale screening, G4BD-RORγt stable S2 cells with transient transfection of two luciferase constructs; assay type: cell-based; set-up: expressed in transfected cells
Description: Promega Dual-Glo system is widely used for HTS as the luciferase substrates. Cell culture medium was reduced to the final volume of 10 μl or less and 10 μl of Dual-glo and 10 μl of Stop-glo luciferase substrates were added in a sequencial manner (Promega). Firefly and Renilla luciferase activity was determined by measuring luminescence signals using an automated 384-well plate reader equipped with multiple stack units (such as the Analyst GT or Envision plate readers).

RORγ/γt [3] = molecular target: T1, RORγ/γt; test: RORγ/γt-luc reporter S2 cell assay / HTS (firefly luciferase); details: for 80% Inhib. @: RORγ/γt reporter, S2 cells, concentration for 80% inhibition; for Curve Class: RORγ/γt HTS concentration response curve class; for RORγ/γt reporter activity (in words): S2 cell reporter
From the text: The Drosophila S2 cell line was originally purchased from Invitrogen and was maintained in Schneider's medium supplemented with 10% heat-inactivated bovine fetal calf serum and antibiotics (Invitrogen). Gal4 DNA binding domain (G4 DBD) corresponding to amino acids 1 through 147 of Gal4 protein was PCR amplified to make a fusion construct with mouse RORγt (amino acids 79 to the carboxyl terminal end) lacking its DNA binding domain. The resulting chimeric gene was subcloned into the copper inducible pMT/V5-His A vector (available from Invitrogen). In a similar manner, Gal4 fusion constructs were prepared with mouse RORα (amino acids 142 to end) or Drosophila DHR3 (amino acids 120 to end).
In order to generate stable cell lines, cells were co-transfected with pMT-G4 DBD-RORγt, pMT-G4 DBD-RORα, pMT-G4 DBD-DHR3, or pMT-G4DBDVP16 and pHygro plasmids (Invitrogen) and screened for resistant colonies in the presence of hygromycin (0.3 mg/mL). More than 150 independent RORγ stable clones with luciferase reporters (pMt-RORγ_luc) were tested for their suitability for the high-throughput screening (HTS) based on the following criteria: high signal-to background ratio in 384- and 1,536-well plates, their high induction rate upon the addition of copper, and RORγ/γt specificity probed by the dsRORγ- or RORγ/γt antagonist-mediated suppression. Positive clones were further transfected with pUAST-firefly luciferase, polIII-Renilla luciferase, and pCoPuro (Iwaki, Figuera et al. 2003) (“Rapid selection of Drosophila S2 cells with the puromycin resistance gene.” Biotechniques 35(3): 482-4, 486.) and selected with puromycin (2.5 ug/ml). […] Using similar methods, stable clones with genomic integration of the luciferase reporters and other reporters were generated such as pMT-RORα_luc, pMT-DHR3_luc, or pMT-VP16_luc.
600 G4 DBD-RORγ/γt-luc reporter (#25) or G4 DBD-VP16-luc reporter cells were distributed into each well of 1,536-well white bottom plates in 4 μl S2 cell culture volume containing hygromicin (300 μg/ml) and puromycin (2 μg/ml). Small compounds in seven different concentrations range from 46 μM to 1.7 nM were pin-transferred (23 nl) by a robot (Inglese et al., 2006, Proc. Natl. Acad. Sci. 103:11473-8). […] After 20-hour incubation at ambient temperature, 1.5 μl firefly luciferase detection mix was added and the luciferase activities were measured in 10 min. ViewLux luminometers were used for measuring luciferase signal.
Since their cognate DNA binding sites were not well characterized, the DNA binding domains (DBD) of RORγ/γt, RORα(mouse homolog for PORγ), and DHR3 (Drosophila orthologue for ROR family proteins) were replaced with the heterologous yeast GAL4 DBD. The transcriptionally active domain of general transcriptional activator VP16 was also fused with GAL4 DBD.

RORγ = molecular target: T2, RORγ (Homo sapiens, UniProt P51449); test: RORγ overexpression dependent IL17a production in human CD4 T cells (RORγt-IRES-GFP transduced); assay type: cell-based; details: human peripheral blood naive CD4+ T cells, transduced day 1, analyzed day 6
T2 construct: expressed in transfected cells; host or cells: human peripheral blood naive CD4+ T cells, virally transduced
T2 sequence (P51449 1-497 isoform P51449-2): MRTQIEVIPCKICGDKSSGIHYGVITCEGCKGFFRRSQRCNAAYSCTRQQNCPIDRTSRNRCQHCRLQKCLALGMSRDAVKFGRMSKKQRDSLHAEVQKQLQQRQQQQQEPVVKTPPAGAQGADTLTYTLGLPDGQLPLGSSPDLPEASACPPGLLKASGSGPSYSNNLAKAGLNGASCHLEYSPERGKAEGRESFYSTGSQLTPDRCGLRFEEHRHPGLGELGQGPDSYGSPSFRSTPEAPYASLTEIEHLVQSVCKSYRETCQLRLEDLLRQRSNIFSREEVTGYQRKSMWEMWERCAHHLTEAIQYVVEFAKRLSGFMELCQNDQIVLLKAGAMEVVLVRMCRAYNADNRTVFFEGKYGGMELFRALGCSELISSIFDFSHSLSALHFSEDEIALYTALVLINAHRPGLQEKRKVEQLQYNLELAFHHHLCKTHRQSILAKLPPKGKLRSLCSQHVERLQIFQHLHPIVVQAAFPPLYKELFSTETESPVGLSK
Description: ROR dependent Th17 cell differentiation.
GFP expressing cells were gated for analysis. DMSO or compounds were added 6-8 hours after viral transduction.

[4] = tested on: human naive cord blood T cells; test: Human Th17 cell differentiation, naive cord blood T cells (IL-17a and IFN-γ, flow cytometry); assay type: cell-based; details: six days, IL2, IL23, ILβ, TGFβ
From the text: Human Th17 cell differentiation. Compound effects on human RORγt will be tested by treating human cord blood CD4 T cells with select compounds to determine if such compounds alter differentiation into Th17 lineages.

[5] = tested on: VP16-luc, RORα-luc, and DHR3-luc reporter S2 cell lines; test: S2 cell reporter specificity test on other closely related reporters; assay type: cell-based; details: S2 cell assay
[6] = 20 μM, DMSO 17% Th17, compound added Day 1, analyzed Day 4
[7] = 5 μM, DMSO 25% Th17, compound added Day 1, analyzed Day 4
[8] = at 10 uM (Table 4, printed in 20 μM column)

T1 sequence (P51450 with tags, fused parts or gaps T352K): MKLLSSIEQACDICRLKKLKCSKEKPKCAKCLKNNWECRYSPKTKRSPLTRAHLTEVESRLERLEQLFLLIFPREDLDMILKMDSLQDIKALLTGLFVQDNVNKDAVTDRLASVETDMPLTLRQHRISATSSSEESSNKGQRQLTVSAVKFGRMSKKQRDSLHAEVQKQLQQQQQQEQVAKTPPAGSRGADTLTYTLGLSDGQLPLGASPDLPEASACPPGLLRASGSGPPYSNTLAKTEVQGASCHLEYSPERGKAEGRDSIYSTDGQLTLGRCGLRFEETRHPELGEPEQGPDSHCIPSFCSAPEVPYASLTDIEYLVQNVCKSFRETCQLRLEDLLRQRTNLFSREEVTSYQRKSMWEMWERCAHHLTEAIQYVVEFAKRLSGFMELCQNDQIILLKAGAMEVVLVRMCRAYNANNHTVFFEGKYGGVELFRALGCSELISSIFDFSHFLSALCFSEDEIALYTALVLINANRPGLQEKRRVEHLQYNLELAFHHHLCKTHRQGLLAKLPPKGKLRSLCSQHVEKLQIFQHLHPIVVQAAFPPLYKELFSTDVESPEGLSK

pIC50 (RORγ/γt [3])	80% Inhib. @ (RORγ/γt [3])	Structure (SMILES)	percentage of mouse Th17 cells (IL17a production) [1, 6]	percentage of mouse Th17 cells (IL17a production) [1, 7]	also measured
–	–	Cc1nn(-c2cc(C)c3ccccc3n2)c2c1C1C(C2)C1(C)C (stereo not shown) [MLS000526165-02]	8.3%	–	–
–	–	CC(=O)[C@@]1(O)CC[C@H]2[C@H]3C[C@@H](C)C4=CC(=O)C=C[C@]4(C)[C@@]3(F)[C@@H](O)C[C@]21C [NCGC00016442-02]	2.6%	4.8%	–
–	–	C[C@H]1O[C@@H](O[C@H]2[C@@H](O)C[C@H](O[C@H]3[C@@H](O)C[C@H](O[C@H]4CC[C@@]5(C)[C@H](CC[C@@H]6[C@@H]5CC[C@]5(C)[C@@H](C7=CC(=O)OC7)CC[C@]65O)C4)O[C@@H]3C)O[C@@H]2C)C[C@H](O)[C@@H]1O [digitoxin]	–	–	RORγ/γt antagonist identification (in words) (RORγ/γt [2]): specific RORγ/γt antagonists
6.87	0.4389 µM	CCOC(=O)c1sc(NC(=O)c2cc3c(s2)CCC(C)C3)nc1C (stereo not shown) [MLS000566729-02]	12.1%	16.3%	–
5.06	12.38 µM	O=C(CCCOc1ccccc1)Nc1nc2ccccc2[nH]1 [MLS000772650-02]	9.9%	16.9%	–
–	–	CC(C)(C)c1ccc(-c2noc(CCC(=O)Nc3cccnc3)n2)cc1 [MLS001217081-02]	8.3%	–	–
–	–	C[C@H]1[C@H](C)CC[C@]2(C(=O)O)CC[C@]3(C)C(=CC[C@@H]4[C@@]5(C)CC[C@H](O)C(C)(C)[C@@H]5CC[C@]43C)[C@H]12 [ursolic acid]	–	–	effect on mouse Th17 cell differentiation / IL-17a in mouse CD4 T cells (in words) [1]: RORγt specific inhibitory effects; effect on human CD4 T cell cytokine production (in words) [4]: RORγt specific inhibitory effects
–	–	CCOC(=O)C1CCN(CC(=O)Nc2cc(C)nn2-c2nc3ccccc3s2)CC1 [MLS000569401-02]	–	15%	–
4.87	35.57 µM	COc1ccc(OC)c(NC(=S)N(CCc2c(C)[nH]c3ccccc23)Cc2cccs2)c1 [MLS000696943-02]	3.1%	13.9%	–
4.75	62.17 µM	O=C(NC(=S)Nc1nc(-c2ccccc2)cs1)c1cccnc1 [MLS000592121-02]	27.7%	27.7%	–
–	–	CCOC(=O)[C@@H]1[C@H]2COc3ccc(Br)cc3[C@@H]2N2C(=O)N(c3ccccc3)C(=O)[C@@]12C [MLS001066232-01]	–	–	activity of other closely related reporters (in words) [5]: without affecting the activity; percentage of mouse Th17 cells (IL17a production) [1, 8]: 10.4 (at 10 uM) %; RORγ overexpression dependent IL17a production (in words) (RORγ): inhibit; AC50 (RORγ/γt [3]): 10 µM; Curve Class (RORγ/γt [3]): −2.1; RORγ/γt reporter activity (in words) (RORγ/γt [3]): inhibition of RORγ reporter
–	–	C[C@H]1[C@H](C)CC[C@]2(C(=O)O)CC[C@]3(C)C(=CC[C@@H]4[C@@]5(C)CC[C@H](O)C(C)(C)[C@@H]5CC[C@]43C)[C@H]12 [MLS000728569-02]	dead	3.7%	–
–	–	C=C(NC(=O)c1ccccc1)N1CCN(c2ncc3c(=O)c(C(=O)O)cn(CC)c3n2)CC1 [MLS000777984-02]	8.9%	–	effect on mouse Th17 cell differentiation / IL-17a in mouse CD4 T cells (in words) [1]: RORγt specific inhibitory effects
5.58	7.292 µM	O=C(/C=C/c1ccc(S(=O)(=O)N2CCOCC2)cc1)NC(=S)Nc1ccc(N2CCOCC2)cc1 [MLS000402315-02]	4.8%	–	–
–	–	CC1OC(OC2C(O)CC(OC3C(O)CC(OC4CCC5(C)C(CCC6C5CC(O)C5(C)C(C7=CC(=O)OC7)CCC65O)C4)OC3C)OC2C)CC(O)C1O (stereo not shown) [digoxin, reference compound]	–	–	Th17 (percentage of mouse Th17 cells) ([1]; 10 μM, DMSO 26% (Table 5)): 0.91%
6.26	1.646 µM	COc1ccc(C(=O)/C=C/c2ccc(OC)cc2OC)c(O)c1 [MLS001048850-02]	11.9%	–	–
5.79	8.843 µM	O=C(CCCN1C(=O)/C(=C/c2ccccc2Cl)SC1=S)Nc1cccnc1 [MLS001034558-02]	dead	14.3%	–
–	–	CCOc1ccc(-c2cc(CCCC(=O)NCc3cccnc3)no2)cc1 [MLS000118457-02]	10.7%	–	–
–	–	CCOC(=O)[C@@H]1[C@H]2COc3cc(OC)ccc3[C@@H]2N2C(=O)N(c3ccc(Cl)cc3)C(=O)[C@@]12C [MLS001066268-01]	–	–	AC50 (RORγ/γt [3]): 8.91 µM; Curve Class (RORγ/γt [3]): −2.1
–	–	CCOC(=O)[C@H]1[C@H]2COc3cc(OC)ccc3[C@@H]2N2C(=O)N(c3ccc(Cl)cc3)C(=O)[C@@]12C [MLS001066308-01]	–	–	Curve Class (RORγ/γt [3]): 4
–	–	CCOC(=O)[C@@H]1[C@H]2COc3ccc(Br)cc3[C@@H]2N2C(=O)N(c3cccc(F)c3)C(=O)[C@@]12C [MLS001066026-01]	–	–	AC50 (RORγ/γt [3]): 17.8 µM; Curve Class (RORγ/γt [3]): −2.2
–	–	Cc1cc(C)n(-c2nc(SCC(=O)O)c3c4c(sc3n2)CCCC4)n1 [MLS000778763-02]	10.2%	–	–
6.55	0.7759 µM	Cc1ccc(Sc2cncc3sc(C(N)=O)cc23)cc1 [NCGC00167761-02]	3.6%	11.6%	–
–	–	Cc1cccc(-c2nc3cc(NC(=O)C4CCCO4)ccc3o2)c1 (stereo not shown) [MLS000700815-02]	11.9%	–	–
–	–	CCOC(=O)[C@H]1[C@H]2COc3cc(OC)ccc3[C@@H]2N2C(=O)N(c3ccc(Br)cc3)C(=O)[C@@]12C [MLS001066259-01]	–	–	Curve Class (RORγ/γt [3]): 4

Structure (SMILES)	pIC50 (RORγ/γt [3])	80% Inhib. @ (RORγ/γt [3])	percentage of mouse Th17 cells (IL17a production) [1, 6]	percentage of mouse Th17 cells (IL17a production) [1, 7]	also measured
CO[C@H]1[C@@H](O)CC(OC2[C@@H](O)CC(OC3[C@@H](O)C[C@H](OC4CC[C@@]5(C)C(CCC6C5CC(O)[C@]5(C)[C@H](C7=CC(=O)OC7)CCC65O)C4)O[C@@H]3C)O[C@@H]2C)O[C@@H]1C (stereo partly shown) [NCGC00168746-02]	5.70	6.27 µM	1.2%	4.5%	–
CCOC(=O)[C@@H]1[C@H]2COc3cc(OC)ccc3[C@@H]2N2C(=O)N(c3ccc(C)cc3)C(=O)[C@@]12C [MLS001066267-01]	5.30	10 µM	–	–	percentage of mouse Th17 cells (IL17a production) [1, 8]: 13.5 (at 10 uM) %; RORγ overexpression dependent IL17a production (in words) (RORγ): inhibit; AC50 (RORγ/γt [3]): 5.01 µM; Curve Class (RORγ/γt [3]): −2.1
C=C1NN=C(c2ccccc2Br)N1N=Cc1ccc(N(CC)CC)cc1 [MLS000767819-02]	5.56	7.562 µM	10.2%	–	activity of other closely related reporters (in words) [5]: without having effects; RORγ/γt reporter activity (in words) (RORγ/γt [3]): suppression of RORγ reporter activity
